Reference: patent publication US7618975B2, “4-arylamino-quinazolines and analogs as activators of caspases and inducers of apoptosis and the use thereof” (Myriad Pharmaceuticals, Inc., priority 2003, dated 2009)
Structures can show the parent of a compound that is named as a salt.

Tests used:
T-47D cells = test: Caspase cascade activation (N-(Ac-DEVD)-N′-ethoxycarbonyl-R110 fluorogenic substrate) in T-47D cells; assay type: cell-based, Human; details: T-47D; for Caspase activity Ratio T-47D (24 hr) / Caspase activity Ratio T-47D (48 hr): ratio of net RFU to control; for Ratio T-47D (48 hr): benzohydrazide analogs table
[1] = test system: tubulin (Cytoskeleton #ML113, MAP-rich); test: Inhibition of tubulin polymerization (DAPI fluorescence); assay type: biochemical; details: 30 minutes preincubation, 30 minutes at 37° C.
Procedure: Lyophilized tubulin (Cytoskeleton #ML113, 1 mg, MAP-rich) was assayed for the effect of the test compound on tubulin polymerization as measured by change in fluorescence for 4′,6-diamidino-2-phenylindole (DAPI) (Barron, D. M. et al. Analytical Biochem., 2003, 315, 49-56.). 1 μl of serial dilutions of each test compound (from 100×DMSO stock) was added in 96 well plate format and preincubated for 30 minutes with 94 ul of the non-GTP supplemented tubulin supernatant. 5 μl of DAPI/GTP solution was added to initiate polymerization and incubated for 30 minutes at 37° C. Fluorescence was read with excitation 350 nm, emission wavelength 485 nm on a Tecan Spectraflour Plus. Polymerized tubulin (DMSO and with the tubulin stabilizer Taxol® (paclitaxel)) gives a higher DAPI fluorescence as compared to non-polymerized tubulin (vinblastine and colchicine used to determine baseline).

Row | Structure (SMILES) | Caspase activity Ratio T-47D (24 hr) (T-47D cells) | IC50 [1] | Caspase activity Ratio T-47D (48 hr) (T-47D cells) | Ratio T-47D (48 hr) (T-47D cells)
1 | Cc1ccc(N(C)c2nc(Cl)nc3ccccc23)cc1 [Example 2, (2-Chloro-quinazolin-4-yl)-(4-methyl-phenyl)-methyl-amine] | 6.7 | 3000 nM |  | 
2 | COc1ccc(N(C)c2nc(Cl)nc3ccccc23)cn1 [Example 36, (2-Chloro-quinazolin-4-yl)-(6-methoxy-pyridin-3-yl)-methyl-amine] | 6.7 | < 1000 nM |  | 
3 | COc1ccc(N(C)c2nc(Cl)nc3ccccc23)c(OC)c1 [Example 41, (2-Chloro-quinazolin-4-yl)-(2,4-dimethoxy-phenyl)-methyl-amine] |  | < 1000 nM | 12.4 | 
4 | COc1ccc(N(C)c2nc(C)nc3ccccc23)cc1 [Example 72, (4-Methoxy-phenyl)-methyl-(2-methyl-quinazolin-4-yl)-amine hydrochloride] | 9.0 | < 1000 nM | 7.4 | 
5 | COc1cccc(N(C)c2nc(Cl)nc3ccccc23)c1 [Example 43, (2-Chloro-quinazolin-4-yl)-(3-methoxy-phenyl)-methyl-amine] |  | 2000 nM | 14.7 | 
6 | COc1ccc(OC)c(Nc2nc(Cl)nc3ccccc23)c1 [Example 31, (2-Chloro-quinazolin-4-yl)-(2,5-dimethoxy-phenyl)-amine] | 8.0 | 10000 nM | 14.7 | 
7 | COc1ccccc1N(C)c1nc(Cl)nc2ccccc12 [Example 44, (2-Chloro-quinazolin-4-yl)-(2-methoxy-phenyl)-methyl-amine] |  | 10000 nM | 14.3 | 
8 | COc1ccc(N(C)c2ncnc3c2CCCC3)cc1 [Example 25] |  | 2000 nM | 5.8 | 
9 | COc1ccc(N(C)c2nc(Cl)nc3cc(OC)c(OC)cc23)cc1 [Example 20, (2-Chloro-6,7-dimethoxyquinazolin-4-yl)-(4-methoxy-phenyl)-methyl-amine] | 13.1 | 3000 nM |  | 
10 | COc1cc2nc(Cl)nc(N(C)c3ccc(C)cc3)c2cc1OC [Example 22, (2-Chloro-6,7-dimethoxyquinazolin-4-yl)-(4-methyl-phenyl)-methyl-amine] | 1.0 |  | 1.0 | 
11 | Cc1nc(Nc2ccncc2)c2ccccc2n1 [Example 135, (2-Methyl-quinazolin-4-yl)-(pyridin-4-yl)-amine] | 1.2 |  |  | 
12 | COc1cnc(Nc2nc(C)nc3ccccc23)nc1 [Example 141, (5-Methoxy-pyrimidin-2-yl)-(2-methyl-quinazolin-4-yl)-amine] | 1.2 |  |  | 
13 | COc1ccc(N(C)c2nc(CF)nc3ccccc23)cc1 [Example 55, (2-Fluoromethyl-quinazolin-4-yl)-(4-methoxy-phenyl)-methyl-amine] |  |  | 9.0 | 
14 | COc1ccc(C(=O)NN(C)c2nc(C(F)(F)F)nc3ccccc23)cc1 [N′-(2-(trifluoromethyl)quinazolin-4-yl)-4-methoxy-N′-methylbenzohydrazide] |  |  |  | 13.1
15 | COc1ccc(N(C)c2nc(C)nc3ccc([N+](=O)[O-])cc23)cc1 [Example 109, (4-Methoxy-phenyl)-(2-methyl-6-nitro-quinazolin-4-yl)-methyl-amine] | 4.6 |  |  | 
16 | COc1ccc(N(C)c2nc(NCCN3CCOCC3)nc3cc(OC)c(OC)cc23)cc1 [Example 23, 6,7-Dimethoxy-N^4-(4-methoxy-phenyl)-N^4-methyl-N^2-(2-morpholin-4-yl-ethyl)-quinazoline-2,4-diamine] | 1.0 |  | 1.0 | 
17 | Cc1nc(N(C)c2ccc(F)cc2)c2ccccc2n1 [Example 124, (4-Fluoro-phenyl)-(2-methyl-quinazolin-4-yl)-methyl-amine] | 5.2 |  |  | 
18 | CSc1nc(N(C)NC(=O)c2cccs2)c2ccccc2n1 [N′-methyl-N′-(2-(methylthio)quinazolin-4-yl)thiophene-2-carbohydrazide] |  |  |  | 10.1
19 | COc1c(Br)cc(N(C)c2nc(C)nc3ccc([N+](=O)[O-])cc23)cc1Br [Example 115, (3,5-Dibromo-4-methoxy-phenyl)-(2-methyl-6-nitro-quinazolin-4-yl)-methyl-amine] | 1.0 |  |  | 
20 | COc1ccc(N(C)c2nc(Cl)nc3ccc(Cl)cc23)cc1 [Example 60, (2,6-Dichloro-quinazolin-4-yl)-(4-methoxy-phenyl)-methyl-amine] |  |  | 6.5 | 
21 | Cc1nc(N(C)c2ccc(C(=O)O)cc2)c2ccccc2n1 [Example 116, 4-(N-Methyl-N-(2-methylquinazolin-4-yl)amino)benzoic Acid] | 1.0 |  |  | 
22 | COc1cccc(Nc2nc(Cl)nc3ccccc23)c1 [Example 32, (2-Chloro-quinazolin-4-yl)-(3-methoxy-phenyl)-amine] |  |  | 1.0 | 
23 | COc1ccc(N(C)c2nc(Cl)nc3cc(C)ccc23)cc1 [Example 57, (2-Chloro-7-methyl-quinazolin-4-yl)-(4-methoxy-phenyl)-methyl-amine] |  |  | 6.2 | 
24 | COc1ccc(N(C)c2nc(NCCO)nc3ccccc23)cn1 [Example 48, N^2-(2-Hydroxyethyl)-N^4-(6-methoxypyridin-3-yl)-N^4-methyl-quinazoline-2,4-diamine] |  |  | 12.5 | 
25 | CSc1nc(N(C)NC(=O)c2ccc(Cl)cc2)c2ccccc2n1 [4-chloro-N′-methyl-N′-(2-(methylthio)quinazolin-4-yl)benzohydrazide] |  |  |  | 14.4
26 | CN(c1nc(Cl)nc2ccccc12)[C@H]1CC[C@@H](C)CC1 [Example 132, (2-Chloro-quinazolin-4-yl)-(cis-4-methylcyclohexyl)-methyl-amine] | 1.2 |  |  | 
27 | Cc1nc(N(C)c2c(Br)cc(N)cc2Br)c2ccccc2n1 [Example 103, (4-Amino-2,6-dibromo-phenyl)-(2-methyl-quinazolin-4-yl)-methyl-amine] | 9.3 |  |  | 
28 | COc1ccc(N(C)c2nc(CO)nc3ccccc23)cc1 [Example 76] | 5.6 |  | 14.1 | 
29 | COc1ccc(N(C)c2nc(C)nc3cc(N=[N+]=[N-])ccc23)cc1 [Example 114, (7-Azido-2-methyl-quinazolin-4-yl)-(4-methoxy-phenyl)-methyl-amine] | 7.2 |  |  | 
30 | COc1ccc(N(C)c2nc(N(C)C)nc3ccccc23)cc1 [Example 122, (2-Dimethylamino-quinazolin-4-yl)-(4-methoxy-phenyl)-methyl-amine] | 8.2 |  |  | 
